From patent US20260226417A1, “METHOD FOR INHIBITING AGING OF STEM CELLS” (ENCELL CO., LTD, priority 2023, published 2026)

Tests used:
Format in all cases: cell-based
[1] = system: replicative senescence model of human umbilical cord-derived mesenchymal stem cells (P18); assay: Cytotoxicity by CCK-8 assay, replicative senescence model (P18); details: 160 μM, P18, CCK-8
[2] = system: human placenta-derived mesenchymal stem cells (PL-MSCs/passage 18); assay: β-galactosidase staining, senescent PL-MSCs; details: PL-MSCs passage 18, 3 days
Description: Human placenta-derived mesenchymal stem cells (pl-mscs) Were Isolated From Placentas Separated according to the previously reported method of Choi et al. (PLOS ONE, (2017) 12 (2): e0172642), umbilical cord blood-derived mesenchymal stem cells (UCB-MSCs) were isolated from the umbilical cord blood separated according to the method of Kim et al. (FEBS Letters, (2010) 584:3601-3608), and adipose tissue-derived mesenchymal stem cells (AD-MSCs) were isolated from adipose tissue separated according to the previously reported method of Palumbo et al. (Int. J. Mol. Sci. (2018) 19:1987).
Each of the obtained mesenchymal stem cells was subcultured in aMEM (a-modified Minimum Essential Media) containing 10% fetal bovine serum (FBS) and 0.5% gentamicin (10 mg/ml).
The replicative senescence models of human adipose-derived mesenchymal stem cells (AD-MSCs/passage 18), human bone marrow-derived mesenchymal stem cells (BM-MSCs/passage 15), human umbilical cord blood-derived mesenchymal stem cells (UCB-MSCs/passage 16), and human placenta-derived mesenchymal stem cells (PL-MSCs/passage 18) established as described above were treated with nervonic acid for 3 days, and β-galactosidase staining was performed to observe the extent of senescence.

[3] = system: human-derived mesenchymal stem cells, control cells (P5) subcultured to P10; assay: Doubling time by CCK-8 assay at P10 after treatment at each passage; details: 160 μM for 24 hours at each passage, at P10, CCK-8
Method: Example 8. Confirmation Of anti-senescence efficacy by treating various human tissue-derived mesenchymal stem cells with nervonic acid Human-derived mesenchymal stem cells were treated with nervonic acid (160 μM) at each passage during cell culture from control cells (P5) to P10 to determine whether continuous treatment with nervonic acid during cell culture at early passage numbers was able to delay cellular senescence.
Specifically, from the day after human-derived mesenchymal stem cells were subcultured, treatment with 160 μM nervonic acid or an equivalent amount of DMSO (control) for 24 hours was performed, followed by replacement with the existing culture medium the next day. The above process was repeated to perform subculture up to P10 (passage 10). As such, B galactosidase staining for measuring cellular senescence was performed at P7, P8, P9, and P10, and cell doubling time and RNA extraction for qRT-PCR were both performed at P10. A more specific procedure therefor was carried out in the same manner as described above.
Also, the doubling time of the control group (DMSO) and the nervonic acid treatment group was measured using CCK (cell counting kit)-8 assay.

[4] = system: replicative senescence model of human umbilical cord-derived mesenchymal stem cells (P18); assay: Cell size measurement, replicative senescence model (P18); details: 160 μM, 3 days
Method: Example 4. Validation of gut microbiota-derived metabolite candidate for senescence control Control cells (P5) and replicative senescence-induced human umbilical cord-derived mesenchymal stem cells (P18) were treated with nervonic acid (160 μM) to analyze the effects of the gut microbiota-derived metabolite having the ability to control senescence of stem cells on the proliferation of stem cells and cell size.
In addition, since cells have the characteristic of undergoing hypertrophy during the progression of cellular senescence, cell sizes were compared.

[5] = system: replicative senescence model of human umbilical cord-derived mesenchymal stem cells (P18); assay: Screening of gut microbiota-derived metabolite library for senescence control (primary HTS and secondary cell viability screening)
Description: Example 2. Screening of gut microbiota-derived metabolites for senescence control of human umbilical cord-derived mesenchymal stem cells In order to determine differences in metabolite reactivity depending on the senescence status of human umbilical cord-derived mesenchymal stem cells, a library of 485 gut microbiota-derived metabolites was used to select candidates that inhibit the proliferation or cause death of replicative senescent stem cells.
Thereby, 13 candidates showing low viability only in the replicative senescence model (P18) without affecting the viability of the control cells (P5) were selected by primary screening, and the experimental group was treated with the metabolite at 25 μM, 50 μM, 100 μM, 200 μM, 300 μM, 400 μM, and 500 μM to determine the optimal concentration of the metabolite by secondary screening, analyzing the senescence control effect at a total of 7 metabolite concentrations.

What does the source list for `CCCCCCCC/C=C\CCCCCCCCCCCCCC(=O)O` [nervonic acid]?
cell viability, fold decrease compared to before treatment [1]: 0.68±0.03 fold; progression of senescence (β-galactosidase staining) compared to control group (DMSO) [2]: progression of senescence was significantly inhibited; doubling time [3]: 24.7 h; cell size, fold decrease compared to before treatment [4]: 0.47±0.03 fold; senescence control effect in secondary screening ([5]; 13 candidates tested at 25-500 μM (7 concentrations), P18 vs P5): greatest effect on controlling senescence; concentration exhibiting senescence control efficacy in secondary screening ([5]; secondary screening): about 200 μM
